# According to patent US10632132B2, “Methods for treating heart transplant rejection” (priority 2018, dated 2020):
# Legend:
# [1] = tested on: NF-κB and NLRP3 inflammasome-dependent IL-1β release; assay: LPS-induced IL-1β release in mice, measured by ELISA in plasma and peritoneal wash; format: in vivo; conditions: C57BL/6 mice, 100 mg/kg IP for 1 hour, then LPS 10 mg/kg IP for 2 hours
# Experimental: (§1) While not wishing to be bound by theory, NLRP3 inflammasome activation is a mechanism that mediates the rejection of allotransplantation and in one embodiment of the described invention, it is a possible therapeutic target to treat allotransplantation of a heart. […] C57BL/6 mice were treated with SANA or salicylic acid (SA) (100 mg/kg, IP) or the vehicle (DMSO) for 1 hour. Then were injected with LPS (10 mg/kg, IP) or PBS for 2 hours, with subsequent peritoneal washes and blood extractions. Peritoneal wash and plasma were stored to measure IL-1β by ELISA. […] Rats were administrated with SANA or SA (100 mg/kg), SANA (50 mg/kg) or vehicle (Phosphate buffer) by oral gavage every day since day −1 until day 15 post-transplantation. Heart heterotopic transplantation was done by implantation of the donor heart (Lewis 1W rat) into the receptor abdomen (Lewis 1A rat). Rejection was diagnosed when the heart lost functionality (beats has stopped).
# [2] = tested on: fully mismatched heterotopic heart allograft; assay: Fully mismatched heterotopic heart allograft survival in rats; format: in vivo, rat (Lewis 1W donor, Lewis 1A receptor); conditions: rat; SANA 100 mg/kg or 50 mg/kg by oral gavage daily from day −1 to day 15 post-transplantation; compared with control (vehicle) and precursor drug SA 100 mg/kg; FIG. 3
# Experimental: as §1
smiles,measurement,setting,value
"O=C(O)c1cc(/C=C/[N+](=O)[O-])ccc1O [SANA, 2-hydroxy-5-(2-nitroethenyl)benzoic acid]",effect on NF-κB and NLRP3 inflammasome-dependent IL-1β release in the peritoneum,"[1]; peritoneal wash, FIG. 2",inhibitory effect
same,effect on NF-κB and NLRP3 inflammasome-dependent IL-1β release in the plasma,"[1]; plasma, FIG. 1",inhibitory effect
same,heart graft survival (rejection = heart beats stopped),[2],prolonged the heart grafted survival
